System: plasma glucose
Experiment: Effect of co-administration with pioglitazone on plasma glucose in db/db mice
Assay type: in vivo
Details: male db/db mice, 21 days in powder chow (0.03% succinate salt of Compound I and/or 0.0075% pioglitazone hydrochloride), feeding condition, average (n=7) ± standard deviation; control 472.9 ± 74.6
From the text: Male db/db (BKS.Cg-+Lepr^db/+Lepr^db) mice (6 weeks of age, CLEA Japan (Tokyo, Japan)) were divided into 4 groups (n=7 in each group) comprising Group A to Group D. Group A had free access to CE-2 powder chow (CLEA Japan) for 21 days. […] During 21 days of administration of the powder chow, there were not significant differences in the administration amount of the powder chow in the above 4 groups. After 21 days of administration of the powder chow, blood samples were taken from the orbital veins of the mice by capillary pipette under feeding condition, and plasma glucose levels were enzymatically measured by using Autoanalyzer 7080 (Hitachi, Japan). The values in the table means average (n=7)±standard deviation.

Q: `CCc1ccc(CCOc2ccc(CC3SC(=O)NC3=O)cc2)nc1` (centres unmarked) [Pioglitazone, 5-{[4-(2-(5-ethyl-2-pyridyl)ethoxy)phenyl]-methyl}-thiazolidine-2,4-dione] was tested. Which “Plasma Glucose” value did it give?
A: 394.4 ± 47.9 mg/dL

Q: For `Cn1c(=O)cc(N2CCC[C@@H](N)C2)n(Cc2cc(F)ccc2C#N)c1=O` [Compound I, 2-[6-(3-Amino-piperidin-1-yl)-3-methyl-2,4-dioxo-3,4-dihydro-2H-pyrimidin-1-ylmethyl]-4-fluoro-benzonitrile], which “Plasma Glucose” value is on record?
A: 410.3 ± 47.9 mg/dL

Source: patent US20110077402A1, “ADMINISTRATION OF DIPEPTIDYL PEPTIDASE INHIBITORS” (priority 2007, published 2011)
